Data from US8734863B2, “Bioactive fraction of Petiveria alliacea, pharmaceutical composition containing same, and combination with immunostimulants for treating cancer” (Pontificia Universidad Javeriana, priority 2009, dated 2014).

What was measured:
tumour cell line NB4 = test: Chromatin condensation and nuclear fragmentation, hematoxylin-eosine and DAPI staining; format: cell-based, human; settings: NB4, 24 h; S3 at 31.2 μg/mL
Procedure: Hematoxylin-eosine and DAPI (4′,6-diamidino-2-phenylindole, Sigma) stained cells were monitored under microscope to evaluated the type of cell death induced by the S3 fraction. In brief, cells treated with S3 fraction for 24 h at 37° C. under humidified atmosphere and 5% CO2, were plated onto microscope slides by cytocentrifugation (Vybra cytospin, Japan) for 5 min at 500 rpm, fixed with ethanol and stained with hematoxylin (2 min) and eosin (45 seconds). Excess dye was removed with ethanol (3 washes) and microscope slides were monitored and photographed under a light microscope (Olympus CH30, Japan) at a magnification of 100×. For DAPI staining, cells plated on glass cover slides (13 mm/-E) previously collagen-precoated (6-10 μg/cm2) at a density of 5×10^4 cells for 16 h, were treated with S3 fraction at 37° C. under humidified atmosphere and 5% CO2 for 24 h. Subsequently, cells were washed (PBS) and fixed with paraformaldehyde (2% in PBS) for 30 min at 4° C. After washing twice with PBS-BSA (1%), cells were incubated in cold acetone (1 min); washed (1% PBS-BSA) and incubated for 5 min with DAPI 300 nM (Sigma, St. Louis, Mo.). Slides with prolong antifade kit (Molecular Probes) were observed under a fluorescence microscope (Olympus, Japan).

tumor cell line A375 = test: Cell cycle distribution, propidium iodide flow cytometry; format: cell-based, human; settings: A375, F4 at 31.2 μg/mL; 18% in no treatment cells
Procedure: After treatment, cells were washed and fixed with ethanol (ice-cold 70%) during 18 h. After fixing, cells were suspended in PBS 1×, 100 U/ml RNase, 50 μg/ml of propidium iodide (Sigma, St. Louis, Mo.) and incubated at room temperature for 30 min. Cell DNA content was measured by flow cytometry using a FACScalibur, (Becton Dickinson, Fullerton, Calif. For cytometric data 50,000 cellular events were collected per sample and analyzed with Cell Quest software (Becton Dickinson). Cell cycle distribution percentages are calculated by Modfit LT software. FACScalibur calibration is performed with the DNA QC Particle Kit (Becton Dickinson).

[1] = tested on: human peripheral blood mononuclear cells (PBMC); test: Growth of human mononuclear cells, MTT; format: cell-based; settings: PBMC with or without phytohemagglutinin, 30 h, F4 250 to 1.9 μg/ml
Procedure: For assays in normal cells, human peripheral blood mononuclear cells (PBMC) from healthy volunteers were separated by density gradient centrifugation (Ficoll-Hypaque, Amersham, Biosciences). PBMC were suspended in RPMI-1640 supplemented medium (10% FBS, 2 mM L-glutamine, 100 U/ml penicillin, 100 μg/ml streptomycin, 0.01 M Hepes) and incubated under humidified environment at 37° C. and 5% CO2.
Human PBMC were seeded (2×10^5 cells/well) on 96-well plates and incubated with or without phytohemagglutinin (PHA, GibcoBRL) for 12 h. Afterwards, PBMC were treated with F4 fraction (250 to 1.9 μg/ml), or vincristine for 30 h. After treatment cells were centrifuged, F4 fraction removed and lastly cells were carefully washed 3 times (PBS) before adding the MTT. Next 12 μl of MTT 12 mM [3-(4,5-dimethylthiazol-2-yl)-2,5-diphenyl tetrazolium bromide] (Molecular Probes, Eugene, Oreg., USA) in PBS was added to each well and incubated for 4 h at 37° C. Formazan crystals were dissolved with SDS-HCl 0.01M. MTT results were read at 540 nm in a Multiskan MCC/340 (LabSystems).

SMILES	type of cell death, hematoxylin-eosine staining (tumour cell line NB4)	G2 phase accumulation (tumor cell line A375) [%]	effect over growth of normal mononuclear cells [1]
CN[C@@H]1C[C@H]2O[C@@](C)([C@@H]1OC)n1c3ccccc3c3c4c(c5c6ccccc6n2c5c31)C(=O)NC4 [staurosporine]	nuclear fragmentation and DNA fragmentation	–	–
CC[C@]1(O)C[C@H]2CN(CCc3c([nH]c4ccccc34)[C@@](C(=O)OC)(c3cc4c(cc3OC)N(C=O)[C@H]3[C@@](O)(C(=O)OC)[C@H](OC(C)=O)[C@]5(CC)C=CCN6CC[C@]43[C@@H]65)C2)C1 [vincristine]	–	~80	lack of effect
